Patent publication US11919898B2, “Crystal form of azaindole derivative and use thereof” (Wuxi Life Fountain Biotech Co., Ltd, priority 2020, dated 2024)
Values joined by “and” are separate entries in the source; they are usually repeats but may differ in a detail not shown here. Equal entries are not always repeated.

Key:
[1] = Stability comparison of crystal form A and crystal form B (slurry in ethanol, XRPD); format: physicochemical; details: stirred in ethanol for 16 hrs
From the text: 35 g of the crystal form B of the compound of Formula (II) was weighed, added to ethanol, and stirred for 16 hrs.

[2] = Hygroscopicity test by dynamic vapor sorption (DVS); format: physicochemical; details: for ΔW, hygroscopic weight gain: 25° C. and 80% RH, DVS; for Classification of hygroscopicity: 25° C./80% RH
Method: Dynamic Vapor Sorption (DVS) of the Present Invention • Instrument model: SMS DVS Intrinsic Dynamic Vapor Sorption Analyzer • Test method: A sample (10-30 mg) is tested in a DVS sample pan. Detailed DVS Parameters: • Temperature: 25° C. • Equilibration: dm/dt=0.002%/min (Minimum: 10 min, Maximum: 180 min) • RH (%) test interval: 10 (0-90%), 5 (90-95%) • RH (%) test interval range: 0-95-0 Hygroscopicity evaluations are classified as follows: [table] Note: AW % represents the hygroscopic weight gain of the test product at 25° C./80% RH. Experimental Method: • 10-30 mg of the crystal form A of the compound of Formula (II) was placed in the DVS sample pan and tested. Experimental Method: • 10-30 mg of the crystal form G of the compound of Formula (III) was placed in the DVS sample pan and tested. Experimental Method: • 10-30 mg of the crystal form J of the compound of Formula (IV) was placed in the DVS sample pan and tested.

| ΔW, hygroscopic weight gain [2] | Classification of hygroscopicity [2] | SMILES | Crystal form conversion (XRPD) [1] |
| --- | --- | --- | --- |
| – | – | COc1cc(OC)c(F)c(Cc2c[nH]c3ncc(-c4cnn(CCO)c4)cc23)c1F.Cl | can be converted into the crystal form A of the compound of Formula (II) |
| 3.829% and 3.928% | hygroscopic | COc1cc(OC)c(F)c(Cc2c[nH]c3ncc(-c4cnn(CCO)c4)cc23)c1F | – |
| 6.077% | hygroscopic | COc1cc(OC)c(F)c(Cc2c[nH]c3ncc(-c4cnn(CCO)c4)cc23)c1F.Cc1ccc(S(=O)(=O)O)cc1 | – |
